# Assays:
# [1] = biological target: T1, KRAS G12D (Homo sapiens (Human), UniProt P01116, G12D); assay: KRAS G12D Nucleotide Exchange Assay (HTRF); type: biochemical; conditions: recombinant GDP-loaded KRAS G12D (20 nM), BIODIPY-labeled GDP (400 nM), recombinant SOS (10 nM), HTRF signal
# Protocol: Recombinant GDP-loaded KRAS G12D (20 nM) was treated with compound at room temperature for 20 minutes in assay buffer (10 mM Hepes pH 7.4, 150 mM NaCl, 5 mM MgCl2, 0.0025% Igepal-CA630, 0.05% BSA, 1 mM DTT, 0.5 nM SA-Tb). BIODIPY-labeled GDP (400 nM) and recombinant SOS (10 nM) were added, and the reaction was incubated for 30 minutes.
# [2] = biological target: T1, KRAS G12D; assay: KRAS G12D RAF Disruption Assay (HTRF); type: biochemical; conditions: recombinant GMPPNP-loaded KRAS G12D (5 nM), GST-RAF1 RBD (9 nM), HTRF signal
# Protocol: Recombinant GMPPNP-loaded KRAS G12D (5 nM) was treated with compound at room temperature for 20 minutes in assay buffer (50 mM Tris pH 7.5, 100 mM NaCl, 1 mM MgCl2, 1 mM DTT, 100 ug/mL BSA).
# T1 sequence (P01116-2 other isoform, or with tags, fused parts or gaps G12D): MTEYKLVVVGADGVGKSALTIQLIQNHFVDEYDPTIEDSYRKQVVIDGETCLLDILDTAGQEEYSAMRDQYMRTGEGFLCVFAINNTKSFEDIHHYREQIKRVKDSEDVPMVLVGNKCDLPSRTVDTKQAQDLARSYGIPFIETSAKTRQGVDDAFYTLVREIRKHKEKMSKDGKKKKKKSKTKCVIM
"KRASG12D Nucleotide Exchange Assay (IC50, µM) [1]","KRASG12D RAF Disruption Assay (IC50, µM) [2]",Compound
0.04 µM,5.1 µM,"CN1CCC[C@@]2(COc3nc(N4CC[C@H]5CC[C@@H](C4)N5)c4ccc(-c5cc(O)cc6ccccc56)c(F)c4n3)CCC[C@@H]12 [Example 9-1, 4-(2-{[(4aS,7aR)-1-methyl-octahydro-1H-cyclopenta[b]pyridin-4a-yl]methoxy}-4-[(1S,6R)-3,9-diazabicyclo[4.2.1]nonan-3-yl]-8-fluoroquinazolin-7-yl)naphthalen-2-ol]"
0.03 µM,2.0 µM,"CN1CCC[C@@]2(COc3nc(N4CC[C@H]5CC[C@@H](C4)N5)c4ccc(-c5cc(O)cc6cccc(F)c56)c(F)c4n3)CCC[C@@H]12 [Example 9-2, 4-(2-{[(4aS,7aR)-1-methyl-octahydro-1H-cyclopenta[b]pyridin-4a-yl]methoxy}-4-[(1S,6R)-3,9-diazabicyclo[4.2.1]nonan-3-yl]-8-fluoroquinazolin-7-yl)-5-fluoronaphthalen-2-ol]"
0.05 µM,3.0 µM,"CCc1cccc2cc(O)cc(-c3ccc4c(N5CC[C@H]6CC[C@@H](C5)N6)nc(OC[C@]56CCC[C@H]5N(C)CCC6)nc4c3F)c12 [Example 9-3, 4-(2-{[(4aS,7aR)-1-methyl-octahydro-1H-cyclopenta[b]pyridin-4a-yl]methoxy}-4-[(1S,6R)-3,9-diazabicyclo[4.2.1]nonan-3-yl]-8-fluoroquinazolin-7-yl)-5-ethylnaphthalen-2-ol]"
0.02 µM,0.2 µM,"C#Cc1c(F)ccc2cc(O)cc(-c3ccc4c(N5CC[C@H]6CC[C@@H](C5)N6)nc(OC[C@]56CCC[C@H]5N(C)CCC6)nc4c3F)c12 [Example 9-4, 4-(2-{[(4aS,7aR)-1-methyl-octahydro-1H-cyclopenta[b]pyridin-4a-yl]methoxy}-4-[(1S,6R)-3,9-diazabicyclo[4.2.1]nonan-3-yl]-8-fluoroquinazolin-7-yl)-5-ethynyl-6-fluoronaphthalen-2-ol]"
0.007 µM,1.0 µM,"Cc1cc(N)nc(-c2c(Cl)cc3c(N4CC[C@H]5CC[C@@H](C4)N5)nc(OCC4(CN(C)C)CC4)nc3c2F)c1C(F)(F)F [Example 10-1, 6-{6-chloro-4-[(1S,6R)-3,9-diazabicyclo[4.2.1]nonan-3-yl]-2-({1-[(dimethylamino)methyl]cyclopropyl}methoxy)-8-fluoroquinazolin-7-yl}-4-methyl-5-(trifluoromethyl)pyridin-2-amine]"
0.006 µM,1.0 µM,"Cc1cc(N)nc(-c2c(Cl)cc3c(N4CC[C@H]5CC[C@@H](C4)N5)nc(OCC4(CN5C6CCC5COC6)CC4)nc3c2F)c1C(F)(F)F [Example 10-2, 6-{6-chloro-4-[(1S,6R)-3,9-diazabicyclo[4.2.1]nonan-3-yl]-8-fluoro-2-{[1-({3-oxa-8-azabicyclo[3.2.1]octan-8-yl}methyl)cyclopropyl]methoxy}quinazolin-7-yl}-4-methyl-5-(trifluoromethyl)pyridin-2-amine]"
0.01 µM,2.7 µM,"Cc1cc(N)nc(-c2c(Cl)cc3c(N4CC[C@H]5CC[C@@H](C4)N5)nc(OCC4(CN5CCCC(F)C5)CC4)nc3c2F)c1C(F)(F)F (stereo partly drawn) [Example 10-3, 6-{6-chloro-4-[(1S,6R)-3,9-diazabicyclo[4.2.1]nonan-3-yl]-8-fluoro-2-({1-[(3-fluoropiperidin-1-yl)methyl]cyclopropyl}methoxy)quinazolin-7-yl}-4-methyl-5-(trifluoromethyl)pyridin-2-amine]"
0.11 µM,41.5 µM,"Cc1cc(N)nc(-c2c(Cl)cc3c(N4CC[C@H]5CC[C@@H](C4)N5)nc(OCC4(CN5CC[C@@H](F)C5)CC4)nc3c2F)c1C(F)(F)F [Example 10-4, 6-{6-chloro-4-[(1S,6R)-3,9-diazabicyclo[4.2.1]nonan-3-yl]-8-fluoro-2-[(1-{[(3R)-3-fluoropyrrolidin-1-yl]methyl}cyclopropyl)methoxy]quinazolin-7-yl}-4-methyl-5-(trifluoromethyl)pyridin-2-amine]"
0.06 µM,12.1 µM,"Cc1cc(N)nc(-c2c(Cl)cc3c(N4CC[C@H]5CC[C@@H](C4)N5)nc(OCC4(CN5CCOCC5)CC4)nc3c2F)c1C(F)(F)F [Example 10-7, 6-{6-chloro-4-[(1S,6R)-3,9-diazabicyclo[4.2.1]nonan-3-yl]-8-fluoro-2-({1-[(morpholin-4-yl)methyl]cyclopropyl}methoxy)quinazolin-7-yl}-4-methyl-5-(trifluoromethyl)pyridin-2-amine]"
0.02 µM,2.6 µM,"Cc1cc(N)nc(-c2c(Cl)cc3c(N4CC[C@H]5CC[C@@H](C4)N5)nc(OCC4(CN5CCCCC5)CC4)nc3c2F)c1C(F)(F)F [Example 10-8, 6-{6-chloro-4-[(1S,6R)-3,9-diazabicyclo[4.2.1]nonan-3-yl]-8-fluoro-2-({1-[(piperidin-1-yl)methyl]cyclopropyl}methoxy)quinazolin-7-yl}-4-methyl-5-(trifluoromethyl)pyridin-2-amine]"
0.41 µM,51.0 µM,"Cc1cc(N)nc(-c2c(Cl)cc3c(N4CC[C@H]5CC[C@@H](C4)N5)nc(OCC4(CN5CCCC(F)C5)CC4)nc3c2F)c1C(F)(F)F (stereo partly drawn) [Example 10-9, 6-{6-chloro-4-[(1S,6R)-3,9-diazabicyclo[4.2.1]nonan-3-yl]-8-fluoro-2-({1-[(3-fluoropiperidin-1-yl)methyl]cyclopropyl}methoxy)quinazolin-7-yl}-4-methyl-5-(trifluoromethyl)pyridin-2-amine]"
0.02 µM,2.4 µM,"Cc1cc(N)nc(-c2c(Cl)cc3c(N4CC[C@H]5CC[C@@H](C4)N5)nc(OCC4(CN5CCCC(F)C5)CC4)nc3c2F)c1C(F)(F)F (stereo partly drawn) [Example 10-10, 6-{6-chloro-4-[(1S,6R)-3,9-diazabicyclo[4.2.1]nonan-3-yl]-8-fluoro-2-({1-[(3-fluoropiperidin-1-yl)methyl]cyclopropyl}methoxy)quinazolin-7-yl}-4-methyl-5-(trifluoromethyl)pyridin-2-amine]"
0.06 µM,2.7 µM,"C#Cc1c(F)ccc2cc(O)cc(-c3ccc4c(N5CC[C@H]6CC[C@@H](C5)N6)nc(OCC5(CN(C)C)CC5)nc4c3F)c12 [Example 11-1, 4-{4-[(1S,6R)-3,9-diazabicyclo[4.2.1]nonan-3-yl]-2-({1-[(dimethylamino)methyl]cyclopropyl}methoxy)-8-fluoroquinazolin-7-yl}-5-ethynyl-6-fluoronaphthalen-2-ol]"
0.01 µM,1.0 µM,"Oc1cc(-c2ccc3c(N4CC[C@H]5CC[C@@H](C4)N5)nc(OC[C@@]45CCCN4C[C@H](F)C5)nc3c2F)c2c(F)cccc2c1 [Example 11-2, 4-(2-{[(2R,7aS)-2-fluoro-hexahydro-1H-pyrrolizin-7a-yl]methoxy}-4-[(1S,6R)-3,9-diazabicyclo[4.2.1]nonan-3-yl]-8-fluoroquinazolin-7-yl)-5-fluoronaphthalen-2-ol]"
2.2 µM,43.1 µM,"Nc1cc2cccc(F)c2c(-c2ccc3c(N4CC[C@H]5CC[C@@H](C4)N5)nc(OC[C@@]45CCCN4C[C@H](F)C5)nc3c2F)n1 [Example 11-4, 1-(2-{[(2R,7aS)-2-fluoro-hexahydro-1H-pyrrolizin-7a-yl]methoxy}-4-[(1S,6R)-3,9-diazabicyclo[4.2.1]nonan-3-yl]-8-fluoroquinazolin-7-yl)-8-fluoroisoquinolin-3-amine]"
0.03 µM,3.2 µM,"CCc1cccc2cc(O)cc(-c3ccc4c(N5CC[C@H]6CC[C@@H](C5)N6)nc(OC[C@@]56CCCN5C[C@H](F)C6)nc4c3F)c12 [Example 11-5, 4-(2-{[(2R,7aS)-2-fluoro-hexahydro-1H-pyrrolizin-7a-yl]methoxy}-4-[(1S,6R)-3,9-diazabicyclo[4.2.1]nonan-3-yl]-8-fluoroquinazolin-7-yl)-5-ethylnaphthalen-2-ol]"
0.02 µM,0.17 µM,"C#Cc1c(F)ccc2cc(O)cc(-c3ccc4c(N5CC[C@H]6CC[C@@H](C5)N6)nc(OC[C@@]56CCCN5C[C@H](F)C6)nc4c3F)c12 [Example 11-6, 4-(2-{[(2R,7aS)-2-fluoro-hexahydro-1H-pyrrolizin-7a-yl]methoxy}-4-[(1S,6R)-3,9-diazabicyclo[4.2.1]nonan-3-yl]-8-fluoroquinazolin-7-yl)-5-ethynyl-6-fluoronaphthalen-2-ol]"
0.06 µM,5.1 µM,"Oc1cc(-c2ccc3c(N4CC[C@H]5CC[C@@H](C4)N5)nc(OC[C@@]45CCCN4C[C@H](F)C5)nc3c2F)c2ccccc2c1 [Example 11-7, 4-(2-{[(2R,7aS)-2-fluoro-hexahydro-1H-pyrrolizin-7a-yl]methoxy}-4-[(1S,6R)-3,9-diazabicyclo[4.2.1]nonan-3-yl]-8-fluoroquinazolin-7-yl)naphthalen-2-ol]"

# — patent US20240217982A1, “KRAS INHIBITORS” (Bristol-Myers Squibb Company, priority 2021, published 2024)
